# Assay results reported in patent US20120157466A1, “HETEROCYCLIC COMPOUNDS WITH CXCR3 ANTAGONIST ACTIVITY” (priority 2007, published 2012).
# pIC50: −log10 of the molar value. Like-named read-outs stand apart in the source and are kept apart here.
# Target: T1, human CXCR3 (N-delta 4) (Homo sapiens, UniProt P49682)
# T1 construct: CD8 leader (N); Flag tag; expressed in transfected cells; membrane preparation
# T1 sequence (P49682 5-368 limits assumed): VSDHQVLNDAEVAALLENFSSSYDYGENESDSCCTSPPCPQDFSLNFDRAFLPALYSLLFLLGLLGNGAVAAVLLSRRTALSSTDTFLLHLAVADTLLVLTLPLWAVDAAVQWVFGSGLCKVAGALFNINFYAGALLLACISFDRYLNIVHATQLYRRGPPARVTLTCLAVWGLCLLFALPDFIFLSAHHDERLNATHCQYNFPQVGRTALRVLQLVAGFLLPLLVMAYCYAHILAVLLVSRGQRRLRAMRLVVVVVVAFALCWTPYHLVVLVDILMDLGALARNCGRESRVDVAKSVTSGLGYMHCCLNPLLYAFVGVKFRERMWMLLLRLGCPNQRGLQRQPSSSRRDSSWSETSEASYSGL
# Test: Human CXCR3 (N-delta 4) Scintillation Proximity Assay (SPA), [125I] IP-10 binding
# Excerpt: The inventive compounds can readily be evaluated to determine activity at The CXCR3 receptors by known methods, such as, for example, Development of Human CXCR3 (N-delta 4) Binding Assay.
# Cloning and Expression of Human CXCR3 (N-delta 4):
# The DNA encoding human CXCR3 was cloned by PCR using human genomic DNA (Promega, Madison, Wis.) as a template. The PCR primers were designed based on the published sequence of human orphan receptor GPR9 (1) with incorporated restriction sites, a Kozak consensus sequence, CD8 leader and Flag tag. The PCR product was subcloned into the mammalian expression vector pME18Sneo, a derivative of the SR-alpha expression vector (designated as pME18Sneo-hCXCR3 (N-delta 4).
# IL-3-dependent mouse pro-B cells Ba/F3 were transfected by electroporation in 0.4 ml Dulbecco's PBS containing 4×10^6 cells with 20 μg of pME18Sneo-hCXCR3 (N-delta 4) plasmid DNA. Cells were pulsed at 400 Volts, 100 OHMs, 960 μFd. The transfected cells were under selection with 1 mg/ml G418 (Life Technologies, Gaithersburg, Md.). G418-resistant Ba/F3 clones were screened for CXCR3 expression by specific binding of [^125I] IP-10 (NEN Life Science Products, Boston, Mass.).
# Preparation of Ba/F3-hCXCR3 (N-delta 4) Membranes
# Ba/F3 cells expressing human CXCR3 (N-delta 4) were pelleted and resuspended in the lysis buffer containing 10 mM HEPES, pH 7.5 and Complete protease inhibitors (1 tablet per 100 ml) (Boehringer Mannheim, Indianapolis, Ind.) at a cell density of 20×10^6 cells per ml. After 5 minutes incubation on ice, cells were transferred to 4639 cell disruption bomb (Parr Instrument, Moline, Ill.) and applied with 1,500 psi of nitrogen for 30 minutes on ice. Large cellular debris was removed by centrifugation at 1,000×g. Cell membrane in the supernatant was sedimented at 100,000×g. The membrane was resuspended in the lysis buffer supplemented with 10% sucrose and stored at −80° C. Total protein concentration of the membrane was determined by BCA method from Pierce (Rockford, Ill.).
# Human CXCR3 (N-delta 4) Scintillation Proximity Assay (SPA)
# For each assay point, 2 μg of membrane was preincubated for 1 hr with 300 μg wheat germ agglutinin (WGA) coated SPA beads (Amersham, Arlington Heights, Ill.) in the binding buffer (50 mM HEPES, 1 mM CaCl2, 5 mM MgCl2, 125 mM NaCl, 0.002% NaN3, 1.0% BSA) at room temperature. The beads were spun down, washed once, resuspended in the binding buffer and transferred to a 96-well Isoplate (Wallac, Gaithersburg, Md.). 25 pM of [^125I] IP-10 with tested compounds in a series of titration were added to start the reaction. After 3 hr reaction at room temperature, the amount of [^125I] IP-10 bound to the SPA beads was determined with a Wallac 1450 Microbeta counter.
# [1] = human CXCR3, Ba/F3-hCXCR3 (N-delta 4) membranes, 25 pM [125I] IP-10, read-out: IC50 rating (human)
# [2] = numerical IC50 values of representative compounds, read-out: IC50
SMILES,pIC50 [1],pIC50 [2]
CC[C@H]1CN(c2nc(Cl)c3nc[nH]c3n2)CCN1C1CCN(Cc2ccc(Cl)cc2F)CC1 [Compound 7],< 7.00,–
CC[C@H]1CN(c2nc3ccccc3n2C)CCN1C1CCN(Cc2ccc(Cl)cc2F)CC1 [Compound 10],< 7.00,–
CC[C@H]1CN(c2nc3ncccc3c(=O)n2C2CC2)CCN1C1CCN(C(=O)c2ccc(Cl)cc2)CC1 [Compound 11],7.00 to 7.60,–
CC[C@H]1CN(c2nc3ncccc3c(=O)n2C2CC2)CCN1C1CCN(Cc2ccc(Cl)cc2)CC1 [Compound 12],> 7.60,8.72
O=C(NCc1ccc(F)c(F)c1)c1cnc(N2CCN(C3CCN(C(=O)c4ccc(Cl)cc4)CC3)CC2)nc1C(F)(F)F [Compound 3],< 7.00,–
CCNC(=O)c1cc(C)nc(N2CCN(C3CCN(Cc4ccc(Cl)cc4)CC3)[C@@H](CC)C2)n1 [Compound 8],< 7.00,–
C[C@H]1CN(c2nccc(C(F)(F)F)n2)CCN1C1CCN(Cc2ccc(Cl)cc2)CC1 [Compound 5],< 7.00,–
CC[C@H]1CN(c2nc3ncccc3c(=O)n2C)CCN1C1CCN(C(=O)c2ccc(Cl)cc2)CC1 [Compound 9],7.00 to 7.60,–
O=C(NCc1ccc(F)c(F)c1)c1cnc(N2CCN(C3CCN(Cc4ccc(Cl)cc4)CC3)CC2)nc1C(F)(F)F [Compound 2],< 7.00,–

# The remaining lines, values ahead:
pIC50 [1],pIC50 [2],SMILES
> 7.60,–,CC[C@H]1CN(c2nc3ncccc3c(=O)n2C2CC2)CCN1C1CCN(Cc2ccc(C#N)cc2)CC1 [Compound 18]
> 7.60,–,CC[C@H]1CN(c2nc3ncccc3c(=O)n2C2CC2)CCN1C1CCN(Cc2ccc(F)c(F)c2)CC1 [Compound 16]
< 7.00,–,CC[C@H]1CN(c2nc3ncccc3c(=O)n2C)[C@H](C)CN1C1CCN(C(=O)c2ccc(Cl)cc2)CC1 [Compound 23]
> 7.60,8.55,CC[C@H]1CN(c2nc3ncccc3c(=O)n2C2CC2)CCN1C1CCN(Cc2ccc(OC(F)(F)F)cc2)CC1 [Compound 13]
> 7.60,8.74,CC[C@H]1CN(c2nc3ncccc3c(=O)n2C2CC2)CCN1C1CCN(Cc2ccc(Cl)c(F)c2)CC1 [Compound 15]
> 7.60,8.25,CC[C@H]1CN(c2nc3ncccc3c(=O)n2C2CC2)CCN1C1CCN(Cc2ccc(C(F)(F)F)cc2)CC1 [Compound 14]
7.00 to 7.60,–,CC[C@H]1CN(c2nc3ncccc3c(=O)n2C2CC2)CCN1C1CCN(C(=O)c2ccc(Cl)nc2N)CC1 [Compound 20]
< 7.00,–,CC[C@H]1CN(c2nc3ncccc3c(=O)n2C)CCN1C1CCN(C(=O)c2ccc(Cl)nc2N)CC1 [Compound 19]
> 7.60,–,CC[C@H]1CN(c2nc3ncccc3c(=O)n2C)CCN1C1CCN(Cc2ccc(OC(F)(F)F)cc2)CC1 [Compound 22]
> 7.60,8.60,CC[C@H]1CN(c2nc3ncccc3c(=O)n2C2CC2)CCN1C1CCN(Cc2ccc(Cl)cc2F)CC1 [Compound 17]
> 7.60,–,CC[C@H]1CN(c2nc3ncccc3c(=O)n2C)CCN1C1CCN(Cc2ccc(Cl)cc2)CC1 [Compound 21]
